Experimental data as given in patent US10857105B2, “Compounds and compositions for intracellular delivery of therapeutic agents” (ModernaTX, Inc., priority 2017, dated 2020).

How the values were obtained:
[1] = system: IL-6, IP-10; experiment: Cytokine induction (IL-6, IP-10) in mice 6 hours after intravenous administration; type: in vivo; design: unit not given here; settings: intravenous 0.5 mpk
In short: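 IL-6 and IP-10 concentrations determined 6 hours after a single intravenous 0.5 mpk dose of lipid nanoparticle formulation in mice, with MC3 and PBS as comparators.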

[2] = Particle size and polydispersity index of nanoparticle compositions (Zetasizer Nano ZS); type: physicochemical
In short: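 Formulations of ionizable lipid, DSPC, cholesterol and PEG-DMG (50:10:38.5:1.5 mol %) carrying Luc or hEPO mRNA with all uridines as N1-methyl pseudouridine. Dynamic light scattering in 1×PBS gave particle size and polydispersity; zeta potential read in 15 mM PBS.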

[3] = Residual lipid levels in rat liver and spleen (UPLC-MS); type: in vivo; settings: for % Lipid Remaining in liver, 48 h, 2 mpk: assuming 300 g rat and 15 g liver
Description: At 48 h liver tissue was harvested for lipid quantification. To pre-weighed tissues, Milli-Q water was added (900 μL water per 100 mg tissue). Tissues were homogenized using an Omni probe homogenizer until uniform. 50 μL of samples and matrix calibration standards were aliquoted into a 96-well plate. 50 μL of blank matrix for matrix blanks and control blanks were aliquoted. 400 μL IS spiking solution were manually added to all samples except matrix blanks. 400 μL of 50:50 ACN:IPA were manually added to matrix-blanks. The plate was covered and the samples vortexed and centrifuged for 5 minutes at >3000 rpm. 200 μL of the samples were transferred into a clean 96-well plate for analysis. Samples were analyzed on a Waters Acquity UPLC using a Higgins Analytical Clipeus C8 column ([…], 30×2.1 mm) and a gradient of either 70-95% or 60-95% (Mobile Phase A: 5 mM ammonium formate in 50:50:1 H2O:MeOH:formic acid; Mobile Phase B: 5 mM ammonium formate in 100:1 MeOH:formic acid) over 1.3 min at […] (column temperature 55° C.). Detection was based on electrospray ionization (ESI) in positive mode using a Sciex API5500 Mass Spectrometer.
The expression of hEPO in rats intravenously administered a nanoparticle composition at a dose of 0.2 mpk or 2.0 mpk was measured at 6 hours. Table 16 summarize the ratio of hEPO expression levels using various nanoparticle compositions as compared to the hEPO expression level using MC3 formulation and the lipid levels in the liver measured 48 hours after administration, as described above. Tables 17 and 18 summarize the lipid levels in the liver and spleen measured 48 hours after administration of Compounds 28, 33, 53, and 54. Liver and spleen levels represent the average values calculated for 3 rats in each group. As is shown in Tables 17 and 18, less than 10% of Compounds 28, 33, 53, and 54 remained in the liver after 48 hours, while greater than 60% of MC3 remained.
Table 19A summarizes the hEPO expression, IP-10 induction, liver and spleen levels, and alanine aminotransferase (ALT) and aspartate aminotransferase (AST) measured upon intravenous administration of formulations including Compounds 48, 49, and 50 to rat at 0.2 and 2 mpk and hEPO mRNA. hEPO concentrations were measured 6 hours after administration, while cytokine induction and liver and spleen levels were measured 48 hours after administration. hEPO and IP-10 concentrations are presented in pg/ml, while liver levels are provided in ng/g. ALT and AST levels are presented in international units.
The expression of hEPO and lipid levels in the liver and spleen in rats intravenously administered a nanoparticle composition at a dose of 0.2 mpk was measured at various time points. Compounds 18 and 25 were selected for comparison with MC3. Lipids were formulated according to the standard MC3 formulation described above. Rats were administered intravenously a single 0.2 mpk dose and expression monitored at 0.25, 0.5, 1, 2, 4, 8, 24, and 48 hours after administration.

[4] = Table 1A, lipid:DSPC:cholesterol:PEG-DMG 50:10:38.5:1.5 mol %
[5] = Table 1D, compositions for subcutaneous administration, # formulated with hEPO mRNA
[6] = Table 1B, formulated with hEPO mRNA
[7] = Table 1C, compositions for subcutaneous administration
[8] = Table 1E, compositions for subcutaneous administration
[9] = lipid:DSPC:Chol:PEG-DMG (50:10:38.5:1.5), hEPO mRNA
[10] = nanoparticle composition with hEPO mRNA (Table 30)

Compound | Cytokine induction, IL-6 [1] | Cytokine induction, IP-10 [1] | Size [2, 4] | % Lipid Remaining in liver, 48 h, 2 mpk ([3]; rats, 48 h) | Size [2, 5] | Size [2, 6] | Size [2, 7] | other results
CCCCCCCCCN(CCO)CCCCCCCC(=O)OC(CCCCCCCC)CCCCCCCC [Compound 3, Heptadecan-9-yl 8-((2-hydroxyethyl)(nonyl)amino)octanoate] | 282.88 | 2052.87 | 97.5 nm | 14% | – | – | – | –
CCCCCCCCC(C)OC(=O)CCCCCCCN(CCO)CCCCCCCC(=O)OC(CCCCCCCC)CCCCCCCC (centres unmarked) [Compound 48, decan-2-yl 8-((8-(heptadecan-9-yloxy)-8-oxooctyl)(2-hydroxyethyl)amino)octanoate] | – | – | 82.3 nm | 7.22% | 79.8 nm | – | – | –
CCCCCCCCCOC(=O)CCCCCCCN(CCO)CCCCCCCOC(=O)C(CCCCCCCC)CCCCCCCC [Compound 30, 7-((2-Hydroxyethyl)(8-(nonyloxy)-8-oxooctyl)amino)heptyl 2-octyldecanoate] | 152.51 | 1638.77 | 59.4 nm | <0.01% | 89.8 nm | 76.3 nm | 81.7 nm | –
CCCCCC=CCC=CCCCCCCCCC(CCCCCCCCC=CCC=CCCCCC)OC(=O)CCCN(C)C (centres unmarked) [MC3, heptatriaconta-6,9,28,31-tetraen-19-yl 4-(dimethylamino)butanoate, reference compound] | 124.42 | 504.90 | 79.7 nm | 87% | 69.1 nm | 57.7 nm | 56.9 nm | PDI [2, 4]: 0.11; PDI [2, 6]: 0.12; PDI [2, 7]: 0.09; PDI [2, 5]: 0.15; PDI [2, 8]: 0.10; Size [2, 8]: 62.4 nm; PDI [2, 9]: 0.114; Size [2, 9]: 73.7 nm; PDI [2, 10]: 0.220; Size [2, 10]: 106.0 nm; % dose remaining, liver, 24 h ([3]; Table 19B, liver, 24 h): 44%; % lipid remaining in liver after 48 hours ([3]; liver, 48 hours): 87%; % remaining dose in liver, 48 h ([3]; rats, 48 h): 74%; Lipid remaining in the liver after 48 hours ([3]; rats, intravenous, 0.2 mpk or 2.0 mpk, 48 hours): greater than 60%
CCCCCCCCCOC(=O)CCCCCCCN(CCO)CCCCCCCC(=O)OC(CCCCCCCC)CCCCCCCC [Compound 18, Heptadecan-9-yl 8-((2-hydroxyethyl)(8-(nonyloxy)-8-oxooctyl)amino)octanoate] | 78.76 | 139.92 | 87.9 nm | 0.018% | 75.0 nm | 73.7 nm | – | –
Nonyl 8-((6-(heptadecan-9-yloxy)-6-oxohexyl)(2-hydroxyethyl)amino) octanoate [Compound 27] | 161.07 | 345.56 | 82.3 nm | – | – | – | – | PDI [2, 4]: 0.18
CCCCCCCCCOC(=O)CCCN(CCO)CCCCCCCC(=O)OC(CCCCCCCC)CCCCCCCC [Compound 26, Heptadecan-9-yl 8-((2-hydroxyethyl)(4-(nonyloxy)-4-oxobutyl)amino) octanoate] | 273.56 | 2330.01 | – | 20% | – | – | – | –
CCCCCC/C=C\COC(=O)CCCCCCCN(CCO)CCCCCCCC(=O)OC(CCCCCCCC)CCCCCCCC [Compound 24, Heptadecan-9-yl (Z)-8-((2-hydroxyethyl) (8-(non-2-en-1-yloxy)-8-oxooctyl)amino)octanoate] | 163.53 | 1172.93 | 99.5 nm | 0.016% | – | – | 88.5 nm | –
CCCCCCCCCCCOC(=O)CCCCCN(CCO)CCCCCCCC(=O)OC(CCCCCCCC)CCCCCCCC [Compound 25, Heptadecan-9-yl 8-((2-hydroxyethyl)(6-oxo-6-(undecyloxy)hexyl)amino)octanoate] | 233.45 | 1194.13 | – | 1.32% | 77.6 nm | 69.7 nm | 76.3 nm | –
